Results taken from the supplement of paper PMC10307832.

Tests used:
Experiment in all cases: relative viability (nuclei count vs DMSO), 5 days (fraction); higher = more cells survive
KIN001-266 + Decitabine = compound: CCN1CCC(CC1)N2C=C(N=N2)CNC3=CC4=C(C(=CN=C4C(=C3)Cl)C#N)NC5=CC(=C(C=C5)F)Cl [KIN001-266] + Nc1ncn([C@H]2C[C@H](O)[C@@H](CO)O2)c(=O)n1 [Decitabine] (partner 2 µM)
Method in brief: (§1)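 Dosing by pin tool came one day after lung cancer cell lines were seeded in 1536-well plates, using either one drug or a fixed anchor-drug dose plus five library-drug doses (not always all listed) in √10 steps. After 5 days, nuclei were counted on 4× images. Relative viability is treated-well nuclei count divided by vehicle-well nuclei count, and values are medians of duplicate plates.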

KIN001-266 + Crizotinib = compound: CCN1CCC(CC1)N2C=C(N=N2)CNC3=CC4=C(C(=CN=C4C(=C3)Cl)C#N)NC5=CC(=C(C=C5)F)Cl [KIN001-266] + C[C@@H](Oc1cc(-c2cnn(C3CCNCC3)c2)cnc1N)c1c(Cl)ccc(F)c1Cl [Crizotinib] (partner 1 µM)
Method in brief: as §1

KIN001-266 + Phenformin = compound: CCN1CCC(CC1)N2C=C(N=N2)CNC3=CC4=C(C(=CN=C4C(=C3)Cl)C#N)NC5=CC(=C(C=C5)F)Cl [KIN001-266] + N=C(N)NC(=N)NCCc1ccccc1 [Phenformin] (partner 250 µM)
Method in brief: as §1

KIN001-266 + Navitoclax = compound: CCN1CCC(CC1)N2C=C(N=N2)CNC3=CC4=C(C(=CN=C4C(=C3)Cl)C#N)NC5=CC(=C(C=C5)F)Cl [KIN001-266] + CC1(C)CCC(c2ccc(Cl)cc2)=C(CN2CCN(c3ccc(C(=O)NS(=O)(=O)c4ccc(N[C@H](CCN5CCOCC5)CSc5ccccc5)c(S(=O)(=O)C(F)(F)F)c4)cc3)CC2)C1 [Navitoclax] (partner 0.5 µM)
Method in brief: as §1

Cell Line	relative viability (KIN001-266 + Decitabine; first compound 0.08 µM)	relative viability (KIN001-266 + Decitabine; first compound 0.253 µM)	relative viability (KIN001-266 + Decitabine; first compound 0.8 µM)	relative viability (KIN001-266 + Decitabine; first compound 2.53 µM)	relative viability (KIN001-266 + Decitabine; first compound 8 µM)	relative viability (KIN001-266 + Crizotinib; first compound 0.08 µM)	relative viability (KIN001-266 + Crizotinib; first compound 0.253 µM)	relative viability (KIN001-266 + Crizotinib; first compound 0.8 µM)	relative viability (KIN001-266 + Crizotinib; first compound 2.53 µM)	relative viability (KIN001-266 + Crizotinib; first compound 8 µM)	relative viability (KIN001-266 + Phenformin; first compound 0.08 µM)	relative viability (KIN001-266 + Phenformin; first compound 0.253 µM)	relative viability (KIN001-266 + Phenformin; first compound 0.8 µM)	relative viability (KIN001-266 + Phenformin; first compound 2.53 µM)	relative viability (KIN001-266 + Phenformin; first compound 8 µM)	relative viability (KIN001-266 + Navitoclax; first compound 0.08 µM)	relative viability (KIN001-266 + Navitoclax; first compound 0.253 µM)	relative viability (KIN001-266 + Navitoclax; first compound 0.8 µM)	relative viability (KIN001-266 + Navitoclax; first compound 2.53 µM)	relative viability (KIN001-266 + Navitoclax; first compound 8 µM)
HCC-366	0.359	0.362	0.221	0.346	0.317	0.52	0.514	0.478	0.482	0.5	0.657	0.644	0.596	0.567	0.509	0.923	1.05	1.07	1.11	1.12
HCC-827	0.327	0.382	0.153	0.28	0.268	0.944	0.921		0.931	0.849	0.439	0.404	0.189	0.318	0.286	1.02	1.08		0.971	0.981
HOP-62	0.224	0.215	0.287	0.204	0.217	0.823	1.09	0.924	0.963	0.971	0.683	0.694	0.688	0.734	0.629	1.11	1.02	1.06	1.05	0.95
LC-2-ad	0.802	0.794	0.676	0.733	0.771	0.43	0.546	0.377	0.447	0.429	0.622	0.647	0.629	0.637	0.576	0.763	0.429	0.473	0.415	0.479
LCLC-97TM1	0.22	0.226	0.226		0.168	0.327	0.289	0.242	0.21	0.24	0.414	0.442	0.413	0.41	0.407	0.506	0.365	0.247	0.398	0.333
LK-2	0.384	0.298	0.309	0.318	0.41	0.229		0.219		0.239	0.538	0.352	0.342	0.281	0.288	0.956	0.917	1.11	0.844	1.13
LOU-NH91	0.796	0.82	0.728	0.767	0.701	0.75	0.694	0.576	0.683	0.647	0.716	0.737	0.489	0.637	0.552	0.761	0.646	0.47	0.609	0.55
LU99A	0.976	1.01	0.9	0.613	0.607	0.662	0.519	0.515	0.55	0.522	0.971	0.805	0.815	0.649	0.682	0.917	0.749	0.735	0.752	0.569
LXF-289	0.379	0.365	0.369	0.34	0.414	0.819	0.801	0.77	0.826	0.76	0.497	0.522	0.497	0.534	0.54	0.957	0.952	0.929	0.952	0.925
NCI-H23	0.332	0.297	0.311	0.311	0.256	0.583	0.523	0.41	0.496	0.448	0.826	0.715	0.772	0.722	0.73	0.835	0.876	0.762	0.962	0.719
NCI-H322M	0.733	0.745	0.74	0.648	0.672	0.796	0.968	0.957	0.819	0.843	0.841	0.835	0.822	0.743	0.747	1.19	1.3	1.24	1.05	1.18
NCI-H441	0.284	0.205	0.242	0.211	0.279	0.86	0.874	0.756	0.775	0.665	0.937	0.837	0.806	0.805	0.641	0.688	0.635	0.483	0.623	0.531
NCI-H460	0.483	0.477	0.475	0.433	0.438	1.01	0.872	1.12	0.808	0.67	0.499	0.506	0.528	0.475	0.433	1.16	1.2	1.15	1.03	1.07
NCI-H520	0.538	0.548	0.576	0.474	0.459	0.719	0.675	0.809	0.742	0.747	0.793	0.633	0.706	0.376	0.58	1.11	1.05	1.16	0.926	0.967
NCI-H596	1.13	1.19	0.967	1.07	0.99	0.989	1.21	0.895	1.08	0.925	0.718	0.805	0.686	0.721	0.677	1.02	0.857	0.92	1	0.785
NCI-H647	0.4	0.385	0.344	0.357	0.336	1.1	1.1	1.05	1.15	0.825	0.65	0.552	0.557	0.468	0.426	1.07	1.28	1.19	1.15	1.13
